Results: patent US10640765B2 (priority 2016, dated 2020)

Columns and labels:
[1] = tested on: vaccinia virus (v7.5/tk viral DNA) in BSC-1 cells; assay type: cell-based
vaccinia virus = assay type: cell-based

CO[C@H]1/C=C/O[C@@]2(C)Oc3c(C)c(O)c4c(O)c(c(/C=N/N5CCN(C)CC5)c(O)c4c3C2=O)NC(=O)/C(C)=C\C=C\[C@H](C)[C@H](O)[C@@H](C)[C@@H](O)[C@@H](C)[C@H](OC(C)=O)[C@@H]1C [Rifampicin, rifampicin]
efficiency (number of recombinant clones) [1]: 113,148 clones/100 mm^2 plate | overall efficiency of clone production with rifampicin versus without rifampicin (vaccinia virus): approximately 10 fold
